Measurements: patent US6638531B1, “Antimicrobial peptides” (priority 1998, dated 2003)
Read-outs that look alike come from different tables or passages of the source. Marks after values point to notes of the source that are not given here. Where no end group is shown, it is not given here.

What was measured:
Assay type in all cases: cell-based
[1] = tested on: artificial oral biofilm of seven oral aerobic and anaerobic types of bacteria; experiment: Antibacterial activity in an artificial oral biofilm; settings: for inhibition at 35 ppm / inhibition at 200 ppm: po; for % reduction in viability counts, total Gram-negative average (s.d.) / % reduction in viability counts, total aerobic average / % reduction in viability counts, total anaerobic average: 0.5 h, pH 7
Experimental: An artificial oral biofilm was made by placing hydroxyapatite discs for five days in a continuous culture system of seven oral aerobic and anaerobic types of bacteria (Streptococcus mutans, Streptococcus sanpuis, Streptococcus salivarius, Actinomyces naeslundii, Veillonella parvula, Prevotella intermedia and Fusobacterium nucleatum) The discs with the biofilm formed thereon were subsequently incubated for half an hour with different concentrations of peptide in 10 mM potassium phosphate buffer, pH 7.0. The biofilm was then sonicated from the discs, diluted in PBS and plated out on semi-selective agar plates. The total […] were counted (Streptococci+Actinomyces) on aerobic incubated blood agar plates, the total Gram-negative counts (Veilonella, Fusobacterium and Prevotella) on vancomycin-containing plates and the total counts on the anaerobic incubated blood agar.

[2] = tested on: bacteria from disrupted plaque; experiment: Antimicrobial activity on oral bacteria; settings: po
From the text: (§1) In order to determine whether the peptides according to the invention are also active against bacteria such as are encountered in the mouth, bacteria were collected from saliva and plaque. Saliva was shaken on a vortex mixer and centrifuged.

[3] = tested on: bacteria from cultured plaque; experiment: Antimicrobial activity on oral bacteria; settings: po
From the text: as §1

[4] = tested on: bacteria collected from plaque; experiment: Antimicrobial activity on oral bacteria; settings: po
From the text: as §1

[5] = tested on: bacteria collected from saliva; experiment: Antimicrobial activity on oral bacteria; settings: po
From the text: as §1

[6] = tested on: Torulopsis glabrata; experiment: Growth inhibition on agar with spotted peptide; parameters: key: “+” designates full growth inhibition; “+/−” designates partial inhibition; “−” signifies no inhibition; settings: T. glabrata on agar, 10 μg peptide spotted
Experimental: (§2) The growth of the yeast Candida albicans, Torulopsis glabrata and meticillin-resistant Staphylococcus aureus (MRSA) was tested by growing them on agar on which 10 μg of each of the peptides according to the invention was spotted. […] “+” designates full growth inhibition, “+/−” designates partial inhibition and “−” signifies no inhibition.

[7] = tested on: Candida albicans; experiment: Growth inhibition on agar with spotted peptide; parameters: key: “+” designates full growth inhibition; “+/−” designates partial inhibition; “−” signifies no inhibition; settings: C. albicans on agar, 10 μg peptide spotted
Experimental: as §2

[8] = tested on: meticillin-resistant Staphylococcus aureus (MRSA); experiment: Growth inhibition on agar with spotted peptide; parameters: key: “+” designates full growth inhibition; “+/−” designates partial inhibition; “−” signifies no inhibition; settings: 10 μg peptide spotted
Experimental: as §2

[9] = tested on: Streptococcus mutans; experiment: Inhibition of lactic acid production; settings: S. mutans; 1 hour in 10 mM PPB with glucose
Experimental: (§3) All peptides according to the invention were tested for their capacity to inhibit the lactic acid production of the bacteria Streptococcus sanguis, Streptococcus mutans, Streptococcus salivarius and Lactobacillus rhamnosus. The formation of lactic acid is a measure for the metabolic activity. For this purpose cultures of bacteria cells were incubated for 1 hour in 10 mM PPB with 0.5 glucose and different concentrations of the peptides. The formation of lactic acid was monitored by means of spectrophotometry.

[10] = tested on: Lactobacillus rhamnosus; experiment: Inhibition of lactic acid production; settings: L. rhamnosus; 1 hour in 10 mM PPB with glucose
Experimental: as §3

[11] = tested on: Streptococcus sanguis; experiment: Inhibition of lactic acid production; settings: S. sanguis; 1 hour in 10 mM PPB with glucose
Experimental: as §3

[12] = tested on: Streptococcus salivarius; experiment: Inhibition of lactic acid production; settings: S. salivarius; 1 hour in 10 mM PPB with glucose
Experimental: as §3

[13] = read-out: % reduction in viability counts, total Gram-negative average (s.d.)
[14] = read-out: % reduction in viability counts, total aerobic average
[15] = read-out: % reduction in viability counts, total anaerobic average
[16] = read-out: % reduction in viability counts, total Gram-negative average

## [H]/N=C(\N/C(=N/[H])NCCCCCCNC(=N)NC(=N)Nc1ccc(Cl)cc1)Nc1ccc(Cl)cc1 [Chlorhexidine]
[1]; [13]
  inhibition at 35 ppm: 68.3%
  inhibition at 200 ppm: 99.9%
[1]; [14]
  inhibition at 35 ppm: 39%
  inhibition at 200 ppm: 99.9%
[1]; [15]
  inhibition at 35 ppm: 38.4%
  inhibition at 200 ppm: 99.9%
[2]; [16]
  inhibition at 50 ppm: > 99.9%
[2]; [14]
  inhibition at 50 ppm: 99.7%
[2]; [15]
  inhibition at 50 ppm: 99%
[3]; [16]
  inhibition at 50 ppm: > 99.9%
[3]; [14]
  inhibition at 50 ppm: > 99.9%
[3]; [15]
  inhibition at 50 ppm: > 99.9%
[4]; [16]
  inhibition at 50 ppm: 99.7%
[4]; [14]
  inhibition at 50 ppm: 99.7%
[4]; [15]
  inhibition at 50 ppm: 99.7%
[5]; [16]
  inhibition at 50 ppm: > 99.9%
[5]; [14]
  inhibition at 50 ppm: > 99.9%
[5]; [15]
  inhibition at 50 ppm: > 99.9%

## KRKFHEKHHSHRGY [dh-5, C-terminal part of histatin 5, reference compound]
[6]
  growth inhibition: −
[7]
  growth inhibition: −
[8]
  growth inhibition: −
[9]
  inhibition of lactic acid production: − (“−” signifies no inhibition of lactic acid formation at >100 μg/ml peptide)
[10]
  inhibition of lactic acid production: − (“−” signifies no inhibition of lactic acid formation at >100 μg/ml peptide)
[11]
  inhibition of lactic acid production: − (“−” signifies no inhibition of lactic acid formation at >100 μg/ml peptide)
[12]
  inhibition of lactic acid production: − (“−” signifies no inhibition of lactic acid formation at >100 μg/ml peptide)

## KRLFKELKFSLRKY-amide (KRLFKELKFSLRKY-NH2) [peptide 12]
[6]
  growth inhibition: +
[7]
  growth inhibition: +
[9]
  inhibition of lactic acid production: + (“+” designates full inhibition at 4-20 μg/ml peptide)
[10]
  inhibition of lactic acid production: + (“+” designates full inhibition at 4-20 μg/ml peptide)
[11]
  inhibition of lactic acid production: + (“+” designates full inhibition at 4-20 μg/ml peptide)
[12]
  inhibition of lactic acid production: + (“+” designates full inhibition at 4-20 μg/ml peptide)

## KRLFKELKKSLRKY [peptide 5]
[6]
  growth inhibition: +
[7]
  growth inhibition: +
[9]
  inhibition of lactic acid production: + (“+” designates full inhibition at 4-20 μg/ml peptide)
[10]
  inhibition of lactic acid production: + (“+” designates full inhibition at 4-20 μg/ml peptide)
[11]
  inhibition of lactic acid production: + (“+” designates full inhibition at 4-20 μg/ml peptide)
[12]
  inhibition of lactic acid production: + (“+” designates full inhibition at 4-20 μg/ml peptide)

## KRLFKELLFSLRKY [peptide 4]
[6]
  growth inhibition: +
[7]
  growth inhibition: +
[8]
  growth inhibition: +/−
[9]
  inhibition of lactic acid production: + (“+” designates full inhibition at 4-20 μg/ml peptide)
[10]
  inhibition of lactic acid production: + (“+” designates full inhibition at 4-20 μg/ml peptide)
[11]
  inhibition of lactic acid production: + (“+” designates full inhibition at 4-20 μg/ml peptide)
[12]
  inhibition of lactic acid production: + (“+” designates full inhibition at 4-20 μg/ml peptide)

## KRLFKELLFSLRKY-amide (KRLFKELLFSLRKY-NH2) [peptide 13]
[6]
  growth inhibition: +
[7]
  growth inhibition: +
[9]
  inhibition of lactic acid production: + (“+” designates full inhibition at 4-20 μg/ml peptide)
[10]
  inhibition of lactic acid production: + (“+” designates full inhibition at 4-20 μg/ml peptide)
[11]
  inhibition of lactic acid production: + (“+” designates full inhibition at 4-20 μg/ml peptide)
[12]
  inhibition of lactic acid production: + (“+” designates full inhibition at 4-20 μg/ml peptide)

## KRLFKELLKSLRKY [peptide 6]
[6]
  growth inhibition: +
[7]
  growth inhibition: +
[9]
  inhibition of lactic acid production: + (“+” designates full inhibition at 4-20 μg/ml peptide)
[10]
  inhibition of lactic acid production: + (“+” designates full inhibition at 4-20 μg/ml peptide)
[11]
  inhibition of lactic acid production: + (“+” designates full inhibition at 4-20 μg/ml peptide)
[12]
  inhibition of lactic acid production: + (“+” designates full inhibition at 4-20 μg/ml peptide)

## KRLFKKLKFSLRKY-OH [peptide 9, KRLFKKLKFSLRKY]
[1]; 10 μg/ml
  % reduction in viability counts, total Gram-negative average (s.d.): 51.0 (32.0)* %
  % reduction in viability counts, total aerobic average: −67.4%
  % reduction in viability counts, total anaerobic average: −66.2%
[1]; 100 μg/ml
  % reduction in viability counts, total Gram-negative average (s.d.): 30.6 (104.4)* %
  % reduction in viability counts, total aerobic average: 78.7%
  % reduction in viability counts, total anaerobic average: 51.2%
[1]; 250 μg/ml
  % reduction in viability counts, total Gram-negative average (s.d.): 53.3 (70.7) %
  % reduction in viability counts, total aerobic average: 64.8%
  % reduction in viability counts, total anaerobic average: 61.2%
[1]; 500 μg/ml
  % reduction in viability counts, total Gram-negative average (s.d.): 96.9 (0.85)* %
  % reduction in viability counts, total aerobic average: 96.6%
  % reduction in viability counts, total anaerobic average: 93.2%
[6]
  growth inhibition: +
[7]
  growth inhibition: +
[8]
  growth inhibition: +
[9]
  inhibition of lactic acid production: + (“+” designates full inhibition at 4-20 μg/ml peptide)
[10]
  inhibition of lactic acid production: + (“+” designates full inhibition at 4-20 μg/ml peptide)
[11]
  inhibition of lactic acid production: + (“+” designates full inhibition at 4-20 μg/ml peptide)
[12]
  inhibition of lactic acid production: + (“+” designates full inhibition at 4-20 μg/ml peptide)

## LLLFLLKKRKKRKY [peptide 11]
[6]
  growth inhibition: +
[7]
  growth inhibition: +
[8]
  growth inhibition: +
[9]
  inhibition of lactic acid production: + (“+” designates full inhibition at 4-20 μg/ml peptide)
[10]
  inhibition of lactic acid production: + (“+” designates full inhibition at 4-20 μg/ml peptide)
[11]
  inhibition of lactic acid production: + (“+” designates full inhibition at 4-20 μg/ml peptide)
[12]
  inhibition of lactic acid production: + (“+” designates full inhibition at 4-20 μg/ml peptide)

## OOLFOELLOSLOOY [peptide 8]
[6]
  growth inhibition: +
[7]
  growth inhibition: +
[9]
  inhibition of lactic acid production: + (“+” designates full inhibition at 4-20 μg/ml peptide)
[10]
  inhibition of lactic acid production: + (“+” designates full inhibition at 4-20 μg/ml peptide)
[11]
  inhibition of lactic acid production: + (“+” designates full inhibition at 4-20 μg/ml peptide)
[12]
  inhibition of lactic acid production: + (“+” designates full inhibition at 4-20 μg/ml peptide)

## OOLFOELOOSLOOY [peptide 7]
[6]
  growth inhibition: +
[7]
  growth inhibition: +
[9]
  inhibition of lactic acid production: + (“+” designates full inhibition at 4-20 μg/ml peptide)
[10]
  inhibition of lactic acid production: + (“+” designates full inhibition at 4-20 μg/ml peptide)
[11]
  inhibition of lactic acid production: + (“+” designates full inhibition at 4-20 μg/ml peptide)
[12]
  inhibition of lactic acid production: + (“+” designates full inhibition at 4-20 μg/ml peptide)
